For 41 compounds, IC50 results are on record in patent US20080021026A1, “BENZOTHIOPHENE INHIBITORS OF RHO KINASE” (priority 2006, published 2008).

The IC50 is the point on the concentration scale where inhibition reaches its midpoint.

The assay has as its target T1, recombinant N-terminal GST-tagged human Rho kinase 2 (ROCK2, amino acids 1-552) (Homo sapiens, UniProt O75116).
T1 construct: ROCK2, amino acids 1-552; purchased Invitrogen Inc. PV3759
Briefly: In vitro Rho kinase assay (luciferase-based ATP consumption), ROCK2. The assay is classed as biochemical. The following applies: recombinant GST-tagged human ROCK2, luciferase-based ATP consumption; read-out: ROCK2 IC50. How it is done: In Vitro Rho Kinase Assay
Rho kinase biochemical assays described below depend on firefly luciferase-based, indirect measurement of total ATP consumption by the kinase following incubation with substrate and ATP. 25 μl of Rho kinase assay buffer (20 mM Tris-HCL [pH 7.5], 1 mM MgCl2, 0.4 mM CaCl2, 0.15 mM EGTA, 0.1 mg/ml bovine serum albumin) containing 0.82 μg/ml of recombinant N-terminal GST-tagged human Rho kinase 1 (ROCK1, amino acids 1-535, Invitrogen Inc., cat. #PV-3691) or recombinant N-terminal GST-tagged human Rho kinase 2 (ROCK2, amino acids 1-552, Invitrogen Inc., cat #PV3759), 100 μg/ml S6 peptide substrate (related to amino acids 218-249 of the human 40S ribosomal protein S6, and suitable for ROCK1 or ROCK2, e.g. Upstate/Millipore Inc., cat #12-420), and 3 µM ATP are dispensed to wells of a 384 multi-well opaque plate. The plate is centrifuged for 30 seconds at approximately 200×g. 240 nl of test compound in DMSO is dispensed to each well by passive pin transfer. The lag phase of this in vitro kinase reaction permits addition of compounds soon after the reaction initiates. The reaction is allowed to incubate at 30° C. for 2 hours. The assay plates are sealed and maintained in a humidified environment. After 2 hours, 25 μl of easylite protein kinase assay reagent (Perkin-Elmer, Inc.) is dispensed. After an additional 10 minute incubation at room temperature (about 22° C.), luminescence activity is measured on a Molecular Devices Analyst multi-mode plate reader or other suitable plate reader. Kinase inhibition results in less ATP consumption, and therefore increased luminescence signal. Negative control activity is measured with DMSO lacking any test compound. The positive control is 2-methyl-1-(4-methylisoquinolin-5-ylsulfonyl)perhydro-1,4-diazepine hydrochloride (aka H-1152P, HCl salt). Efficacy is measured as a percentage of positive control activity. […] In some cases, kinase reactions and compound testing are performed in 1536 multi-well plates under similar conditions, with assay volumes appropriately scaled. The designation NT means the cited example was not tested.

Some results are limits rather than exact numbers.

T1 sequence (O75116 1-552): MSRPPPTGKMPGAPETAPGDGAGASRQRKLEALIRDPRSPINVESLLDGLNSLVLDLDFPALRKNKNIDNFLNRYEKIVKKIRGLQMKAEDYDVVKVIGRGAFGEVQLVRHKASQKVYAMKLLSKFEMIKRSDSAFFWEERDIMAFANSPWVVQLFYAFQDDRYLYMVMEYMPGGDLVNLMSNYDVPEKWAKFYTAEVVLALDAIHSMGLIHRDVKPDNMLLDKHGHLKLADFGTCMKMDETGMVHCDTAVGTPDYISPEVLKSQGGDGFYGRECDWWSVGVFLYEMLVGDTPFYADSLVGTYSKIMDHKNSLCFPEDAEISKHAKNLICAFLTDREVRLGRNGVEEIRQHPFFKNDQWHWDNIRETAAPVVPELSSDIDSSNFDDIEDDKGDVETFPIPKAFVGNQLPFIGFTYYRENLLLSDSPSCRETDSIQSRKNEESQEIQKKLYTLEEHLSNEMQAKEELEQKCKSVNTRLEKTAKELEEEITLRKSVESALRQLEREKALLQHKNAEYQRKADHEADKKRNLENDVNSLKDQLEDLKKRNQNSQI

As for `Cc1c(-c2ccnc(N)n2)sc2ccc(C(=O)N3CCC(N(C)C)C3)cc12` (centres unmarked) [Example 484, CN(C)C1CCN(C1)C(═O)c2ccc3sc(c(C)c3c2)-c4ccnc(N)n4], the IC50 was under 5 µM.
For `Cc1c(-c2ccnc(N)n2)sc2ccc(C(=O)NC3CCN(Cc4ccccc4)CC3)cc12` [Example 452, Cc1c(sc2ccc(cc12)C(═O)NC3CCN(CC3)Cc4ccccc4)-c5ccnc(N)n5], the IC50 is under 5 µM.
With `Cc1c(-c2ccnc(N)n2)sc2ccc(C(=O)NCC3(O)CCCCC3)cc12` [Example 438, Cc1c(sc2ccc(cc12)C(═O)NCC3(O)CCCCC3)-c4ccnc(N)n4], the IC50 was under 5 µM.
For the compound `CCC(CO)NC(=O)c1ccc2sc(-c3ccnc(N)n3)c(C)c2c1` (centres unmarked) [Example 353, CCC(CO)NC(═O)c1ccc2sc(c(C)c2c1)-c3ccnc(N)n3], the IC50 was under 5 µM.
On to `Cc1ccc(CNC(=O)c2ccc3sc(-c4ccnc(N)n4)c(C)c3c2)cc1` [Example 380, Cc1ccc(CNC(═O)c2ccc3sc(c(C)c3c2)-c4ccnc(N)n4)cc1], for which the half-inhibitory concentration (IC50) is under 5 µM.
Consider `Cc1c(-c2ccnc(N)n2)sc2ccc(C(=O)NC3CCCc4ccccc43)cc12` (centres unmarked) [Example 417, Cc1c(sc2ccc(cc12)C(═O)NC3CCCc4ccccc34)-c5ccnc(N)n5], for which the IC50 was under 5 µM.
The same measure for `Cc1c(-c2ccnc(N)n2)sc2ccc(C(=O)NCC(C)C)cc12` [Example 342, CC(C)CNC(═O)c1ccc2sc(c(C)c2c1)-c3ccnc(N)n3]: under 5 µM; for `Cc1c(-c2ccnc(N)n2)sc2ccc(C(=O)N3CCSCC3)cc12` [Example 479, Cc1c(sc2ccc(cc12)C(═O)N3CCSCC3)-c4ccnc(N)n4]: under 5 µM.
In the case of `Cc1c(-c2ccnc(N)n2)sc2ccc(C(=O)N(CCC#N)Cc3ccccc3)cc12` [Example 433, Cc1c(sc2ccc(cc12)C(═O)N(CCC#N)Cc3ccccc3)-c4ccnc(N)n4] it was under 5 µM.
The same measure for `COc1cc2c(cc1OC)CN(C(=O)c1ccc3sc(-c4ccnc(N)n4)c(C)c3c1)CC2` [Example 564, COc1cc2CCN(Cc2cc1OC)C(═O)c3ccc4sc(c(C)c4c3)-c5ccnc(N)n5]: under 5 µM.
Take `COc1cc(CN(C)C(=O)c2ccc3sc(-c4ccnc(N)n4)c(C)c3c2)cc(OC)c1OC` [Example 555, COc1cc(CN(C)C(═O)c2ccc3sc(c(C)c3c2)-c4ccnc(N)n4)cc(OC)c1OC]: the IC50 was over 5 µM.
As for `CNC(=O)c1ccc2sc(-c3ccnc(N)n3)c(C)c2c1` [Example 329, CNC(═O)c1ccc2sc(c(C)c2c1)-c3ccnc(N)n3], the IC50 was under 5 µM.
For `CC(=O)N[C@H]1CCN(C(=O)c2ccc3sc(-c4ccnc(N)n4)c(C)c3c2)C1` [Example 495, CC(═O)N[C@H]1CCN(C1)C(═O)c2ccc3sc(c(C)c3c2)-c4ccnc(N)n4], the IC50 is over 5 µM.
In the case of `Cc1ccc(CNC(=O)c2ccc3sc(-c4ccnc(N)n4)c(C)c3c2)cc1C` [Example 398, Cc1ccc(CNC(═O)c2ccc3sc(c(C)c3c2)-c4ccnc(N)n4)cc1C], the IC50 is over 5 µM.
In the case of `Cc1c(-c2ccnc(N)n2)sc2ccc(C(=O)N(C)C(Cc3ccccc3)c3ccccc3)cc12` (centres unmarked) [Example 557, CN(C(Cc1ccccc1)c2ccccc2)C(═O)c3ccc4sc(c(C)c4c3)-c5ccnc(N)n5] it was over 5 µM; in that of `Cc1c(-c2ccnc(N)n2)sc2ccc(C(=O)N3CCN(c4cccc(Cl)c4)CC3)cc12` [Example 544, Cc1c(sc2ccc(cc12)C(═O)N3CCN(CC3)c4cccc(Cl)c4)-c5ccnc(N)n5], under 5 µM; in that of `Cc1c(-c2ccnc(N)n2)sc2ccc(C(=O)N(C)CCC#N)cc12` [Example 465, CN(CCC#N)C(═O)c1ccc2sc(c(C)c2c1)-c3ccnc(N)n3], under 5 µM.
As for `Cc1c(-c2ccnc(N)n2)sc2ccc(C(=O)NCc3cccnc3)cc12` [Example 364, Cc1c(sc2ccc(cc12)C(═O)NCc3cccnc3)-c4ccnc(N)n4], the IC50 was under 5 µM.
Consider `Cc1ccc(N2CCN(C(=O)c3ccc4sc(-c5ccnc(N)n5)c(C)c4c3)CC2)c(C)c1` [Example 538, Cc1ccc(N2CCN(CC2)C(═O)c3ccc4sc(c(C)c4c3)-c5ccnc(N)n5)c(C)c1], for which the IC50 was over 5 µM.
The same measure for `Cc1ccc(C)c(CNC(=O)c2ccc3sc(-c4ccnc(N)n4)c(C)c3c2)c1` [Example 393, Cc1ccc(C)c(CNC(═O)c2ccc3sc(c(C)c3c2)-c4ccnc(N)n4)c1]: under 5 µM; for `Cc1c(-c2ccnc(N)n2)sc2ccc(C(=O)NCc3ccc(F)cc3F)cc12` [Example 412, Cc1c(sc2ccc(cc12)C(═O)NCc3ccc(F)cc3F)-c4ccnc(N)n4]: under 5 µM.
On to `COc1ccc(CNC(=O)c2ccc3sc(-c4ccnc(N)n4)c(C)c3c2)cc1O` [Example 451, COc1ccc(CNC(═O)c2ccc3sc(c(C)c3c2)-c4ccnc(N)n4)cc1O], for which the IC50 is under 5 µM.
In the case of `Cc1c(-c2ccnc(N)n2)sc2ccc(C(=O)N3CCN(c4ccc(Cl)c(Cl)c4)CC3)cc12` [Example 567, Cc1c(sc2ccc(cc12)C(═O)N3CCN(CC3)c4ccc(Cl)c(Cl)c4)-c5ccnc(N)n5] it was over 5 µM.
The same measure for `Cc1c(-c2ccnc(N)n2)sc2ccc(C(=O)N3CCSC3)cc12` [Example 471, Cc1c(sc2ccc(cc12)C(═O)N3CCSC3)-c4ccnc(N)n4]: under 5 µM.
For `CCCCN(Cc1ccccc1)C(=O)c1ccc2sc(-c3ccnc(N)n3)c(C)c2c1` [Example 515, CCCCN(Cc1ccccc1)C(═O)c2ccc3sc(c(C)c3c2)-c4ccnc(N)n4], the IC50 was over 5 µM.
In the case of `Cc1c(-c2ccnc(N)n2)sc2ccc(C(=O)N3CCCC4CCCCC43)cc12` (centres unmarked) [Example 502, Cc1c(sc2ccc(cc12)C(═O)N3CCCC4CCCCC34)-c5ccnc(N)n5], the IC50 was over 5 µM.
In the case of `COc1ccccc1CCNC(=O)c1ccc2sc(-c3ccnc(N)n3)c(C)c2c1` [Example 424, COc1ccccc1CCNC(═O)c2ccc3sc(c(C)c3c2)-c4ccnc(N)n4] it was under 5 µM; in that of `Cc1c(-c2ccnc(N)n2)sc2ccc(C(=O)NCCCN3CCOCC3)cc12` [Example 415, Cc1c(sc2ccc(cc12)C(═O)NCCCN3CCOCC3)-c4ccnc(N)n4], under 5 µM; in that of `Cc1c(-c2ccnc(N)n2)sc2ccc(C(=O)NC(C)C)cc12` [Example 334, CC(C)NC(═O)c1ccc2sc(c(C)c2c1)-c3ccnc(N)n3], over 5 µM.
Consider `CCCCN(CC)C(=O)c1ccc2sc(-c3ccnc(N)n3)c(C)c2c1` [Example 477, CCCCN(CC)C(═O)c1ccc2sc(c(C)c2c1)-c3ccnc(N)n3], for which the IC50 is under 5 µM.
Turning to `Cc1c(-c2ccnc(N)n2)sc2ccc(C(=O)NC3CONC3=O)cc12` (centres unmarked) [Example 360, Cc1c(sc2ccc(cc12)C(═O)NC3CONC3═O)-c4ccnc(N)n4], the IC50 is under 5 µM.
The same measure for `CCOC(=O)C1CCN(C(=O)c2ccc3sc(-c4ccnc(N)n4)c(C)c3c2)CC1` [Example 509, CCOC(═O)C1CCN(CC1)C(═O)c2ccc3sc(c(C)c3c2)-c4ccnc(N)n4]: over 5 µM.
In the case of `C=CCN(C(=O)c1ccc2sc(-c3ccnc(N)n3)c(C)c2c1)C1CCCCC1` [Example 503, Cc1c(sc2ccc(cc12)C(═O)N(CC═C)C3CCCCC3)-c4ccnc(N)n4], the IC50 is under 5 µM.
In the case of `Cc1c(-c2ccnc(N)n2)sc2ccc(C(=O)NCCCn3ccnc3)cc12` [Example 385, Cc1c(sc2ccc(cc12)C(═O)NCCCn3ccnc3)-c4ccnc(N)n4] it was under 5 µM; in that of `Cc1c(-c2ccnc(N)n2)sc2ccc(C(=O)N3CCN(CCc4ccccc4)CC3)cc12` [Example 536, Cc1c(sc2ccc(cc12)C(═O)N3CCN(CC3)CCc4ccccc4)-c5ccnc(N)n5], under 5 µM.
With `Cc1c(-c2ccnc(N)n2)sc2ccc(C(=O)NC3CCCCC3C)cc12` (centres unmarked) [Example 371, CC1CCCCC1NC(═O)c2ccc3sc(c(C)c3c2)-c4ccnc(N)n4], the IC50 is over 5 µM.
The same measure for `Cc1c(-c2ccnc(N)n2)sc2ccc(C(=O)NCC(C)c3ccccc3)cc12` (centres unmarked) [Example 396, CC(CNC(═O)c1ccc2sc(c(C)c2c1)-c3ccnc(N)n3)c4ccccc4]: under 5 µM; for `Cc1c(-c2ccnc(N)n2)sc2ccc(C(=O)N3CCN(c4ccc(C(F)(F)F)cc4)CC3)cc12` [Example 565, Cc1c(sc2ccc(cc12)C(═O)N3CCN(CC3)c4ccc(cc4)C(F)(F)F)-c5ccnc(N)n5]: over 5 µM; for `C#CCN(C)C(=O)c1ccc2sc(-c3ccnc(N)n3)c(C)c2c1` [Example 461, CN(CC#C)C(═O)c1ccc2sc(c(C)c2c1)-c3ccnc(N)n3]: under 5 µM.
Consider `Cc1c(-c2ccnc(N)n2)sc2ccc(C(=O)N3CCN(c4ccc(F)cc4)CC3)cc12` [Example 526, Cc1c(sc2ccc(cc12)C(═O)N3CCN(CC3)c4ccc(F)cc4)-c5ccnc(N)n5], for which the IC50 was under 5 µM.
In the case of `Cc1c(-c2ccnc(N)n2)sc2ccc(C(=O)N3CCCC3CO)cc12` (centres unmarked) [Example 475, Cc1c(sc2ccc(cc12)C(═O)N3CCCC3CO)-c4ccnc(N)n4] it was under 5 µM.
